Where a name gives a salt, the structure may show the parent alone.
What was measured:
[1] = biological target: T1, human dopamine D1 receptor (Homo sapiens, UniProt P21728); assay: [3H]-SCH-23390 binding to cloned human dopamine D1 receptors (CHO cell membranes); conditions: competitive binding, [3H]-SCH-23390, cloned human D1 in CHO membranes; read-out: D1 affinity Ki
T1 construct: A 1.4 Kb Hind III to Xho I fragment was subcloned into the vector pMMLV; expressed in transfected cells; host or cells: CHO cells, clone CHO-D1M#9 (plasmid pHD1MMLV), membranes
T1 sequence (P21728 whole entry, the tested form may be a part): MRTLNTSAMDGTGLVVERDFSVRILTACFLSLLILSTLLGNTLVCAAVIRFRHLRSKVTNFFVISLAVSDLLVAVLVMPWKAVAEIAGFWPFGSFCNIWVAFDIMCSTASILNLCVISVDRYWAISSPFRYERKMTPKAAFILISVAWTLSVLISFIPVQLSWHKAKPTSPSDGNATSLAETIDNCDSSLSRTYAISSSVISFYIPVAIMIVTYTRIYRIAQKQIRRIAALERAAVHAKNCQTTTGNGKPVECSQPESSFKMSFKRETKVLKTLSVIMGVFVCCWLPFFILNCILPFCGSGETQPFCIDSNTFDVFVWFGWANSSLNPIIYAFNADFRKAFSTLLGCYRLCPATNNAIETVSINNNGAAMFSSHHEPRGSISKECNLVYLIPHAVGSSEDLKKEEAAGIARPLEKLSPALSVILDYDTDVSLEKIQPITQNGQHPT
Description: [^3H]-SCH-23390 Binding to Cloned Human Dopamine D1 Receptors
Determination of relative binding affinity of potential neuropsychiatric and other agents for the human dopamine D1 receptor.
The human D, cDNA was obtained from the laboratory of Dr. Marc Caron in the vector pCMV5. A 1.4 Kb Hind III to Xho I fragment was subcloned into the vector pMMLV. The plasmid pHD1MMLV was then sequenced completely. Transient transfections in COS-7 cells were performed and D1 specific binding was obtained. The construct pHD1MMLV was then transfected stably into CHO cells and 72 G418-resistant clones were isolated. High expressors were identified by mRNA dot blot analysis. Six high expressors were further characterized by binding and then clone CHO-D1M#9 was chosen for detailed pharmacological characterization. This clone was then grown in suspension culture for the purpose of obtaining enough protein to accommodate several months of screening.
B. Cell Culture Conditions
• 1. […] Cells are transferred to suspension culture when at least […] are available (this allows for 300,000 cells/ml in a 50 ml spinner flask; this is the ideal suspension density). Cells are removed from flasks with trypsin, spun down at 1000×G and resuspended the pellet in fresh medium: • 50% CHO-SFM-II+50% Ham's F12 w/10% FBS (final FBS conc. 5%)+400 μg/ml G418+1% P/S. • 3. After the transfer to suspension culture, growth is monitored and cell viability is assessed using trypan blue exclusion. Total and viable cell count on 5 sectors of the hemocytometer are recorded. When the viable cell density reaches 600,000 cell/ml, the volume is doubled. • 4. After 1 week of growth in the 50/50 medium, the cells are spun down and transferred to a new spinner flask and replaced with 75% CHO-SFM II/25% Ham's F12+10% FBS plus the pen-strep and G418. Thereafter every 3 days, the medium is replaced with new medium containing a decreasing amount of FBS as follows:
• 5. The final maintenance culturing medium is made up as follows: • A stock mixture of 10 ml of pen-strep, 0.5 ml of […] (active; final concentration: 200 μg/ml) G418 and 1 ml of FBS are mixed and filtered and refrigerated. A volume (11.5 ml) of this mixture is added to a freshly opened 1 L bottle of CHO-SFM II. C. Membrane Preparation
Cells are harvested into 250 ml centrifuge tubes and spun down at 1200×G. The medium is removed and 100 ml PBS (phosphate-buffered saline) is added to each centrifuge tube; cells are resuspended and spun down again. The PBS is removed and the final pellet is homogenized with a polytron on ice at a medium setting.
The membrane suspension is diluted in water and samples (10, 50 and 100 μl; q.s. to 100 μl with water) are diluted with 100 μl of 1% SDS. The sample is vortexed and allowed to stand for 5 min. Two aliquots each of the solubilized protein sample are placed in clean 13×100 test tubes for the assay. Instructions are followed as outlined in the BioRad DC protein determination kit (Catalog # 500-0112). OD readings that fall between 0.1-0.5 (mid-range of standard curve) should typically be used for calculations. Protein concentrations are calculated from a standard curve using bovine serum albumin as standard by linear regression and interpolation.
Following cell harvesting and protein determination, the homogenate is diluted with 10% DMSO to the correct volume based on Bmax and relative size of individual experiments to be conducted. The concentrated protein is stored in cryogenic vials in aliquots of 1-1.5 ml. Samples may be stored in −80° C. freezer or in liquid nitrogen.

[2] = biological target: human dopamine D2Long (D2L) receptors (Homo sapiens, UniProt P14416)
human dopamine D2Long (D2L) receptors, sequence (P14416 whole entry): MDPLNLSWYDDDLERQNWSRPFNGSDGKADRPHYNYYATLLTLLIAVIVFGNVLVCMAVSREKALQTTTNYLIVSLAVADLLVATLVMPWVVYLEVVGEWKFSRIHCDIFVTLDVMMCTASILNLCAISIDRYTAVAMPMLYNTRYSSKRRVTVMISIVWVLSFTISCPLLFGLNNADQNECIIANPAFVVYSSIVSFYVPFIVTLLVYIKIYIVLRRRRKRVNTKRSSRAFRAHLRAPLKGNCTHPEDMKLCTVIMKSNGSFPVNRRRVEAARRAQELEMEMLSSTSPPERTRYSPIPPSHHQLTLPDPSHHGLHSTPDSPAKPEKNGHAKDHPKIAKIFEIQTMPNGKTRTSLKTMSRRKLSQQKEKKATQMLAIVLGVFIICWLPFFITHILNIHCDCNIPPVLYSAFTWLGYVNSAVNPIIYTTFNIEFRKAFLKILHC

Row | Compound | Ki [1] | Ki [2]
1 | Cc1ccc2c(c1O)C[C@@H](C1CCN(S(=O)(=O)C[C@]34CC[C@H](CC3=O)C4(C)C)CC1)O[C@H]2CN [Example 163, 1(S)-[4-((1R,3S)-1-Aminomethyl-5-hydroxy-6-methyl-isochroman-3-yl)-piperidine-1-sulfonylmethyl]-7,7-dimethyl-bicyclo[2.2.1]heptan-2-one hydrochloride] | 320 nM | ≥ 100000 nM
2 | Cc1ccc2c(c1O)C[C@@H](C1CCN(S(=O)(=O)N(C)C)CC1)O[C@H]2CN [Example 164, 4-((1R,3S)-1-Aminomethyl-5-hydroxy-6-methyl-isochroman-3-yl)-piperidine-1-sulfonic acid dimethylamide hydrochloride] | 400 nM | ≥ 100000 nM
3 | Cc1ccc2c(c1O)C[C@@H](C1CCN(S(=O)(=O)N3CCCCC3)CC1)O[C@H]2CN [Example 165, (1R,3S)-1-Aminomethyl-6-methyl-3-[1-(piperidine-1-sulfonyl)-piperidin-4-yl]-isochroman-5-ol hydrochloride] | 227 nM | ≥ 10000 nM
4 | Cc1ccc2c(c1O)C[C@@H](C1CCN(S(=O)(=O)N3CCC(Cc4ccccc4)CC3)CC1)O[C@H]2CN [Example 166, (1R,3S)-1-Aminomethyl-3-[1-(4-benzyl-piperidine-1-sulfonyl)-piperidin-4-yl]-6-methyl-isochroman-5-ol hydrochloride] | 207 nM | 246 nM
5 | Cc1ccc2c(c1O)C[C@@H](C1CCN(Cc3ccccc3)CC1)O[C@H]2CN(C)C [Example 169, (1R,3S)-3-(1-Benzyl-piperidin-4-yl)-1-dimethylaminomethyl-6-methyl-isochroman-5-ol] | 158 nM | 172 nM
6 | CCN(CC)C[C@@H]1O[C@H](C2CCN(Cc3ccccc3)CC2)Cc2c1ccc(C)c2O [Example 170, (1R,3S)-3-(1-Benzyl-piperidin-4-yl)-1-diethylaminomethyl-6-methyl-isochroman-5-ol] | 1670 nM | 377 nM
7 | CNC[C@@H]1O[C@H](C2CCN(Cc3ccccc3)CC2)Cc2c1ccc(C)c2O [Example 171, (1R,3S)-3-(1-Benzyl-piperidin-4-yl)-6-methyl-1-methylaminomethyl-isochroman-5-ol] | 98 nM | 317 nM
8 | CCNC[C@@H]1O[C@H](C2CCN(Cc3ccccc3)CC2)Cc2c1ccc(C)c2O [Example 172, (1R,3S)-3-(1-Benzyl-piperidin-4-yl)-1-ethylaminomethyl-6-methyl-isochroman-5-ol] | 522 nM | 279 nM
9 | CCN(C)C[C@@H]1O[C@H](C2CCN(Cc3ccccc3)CC2)Cc2c1ccc(C)c2O [Example 173, (1R,3S)-3-(1-Benzyl-piperidin-4-yl)-1-[(ethyl-methyl-amino)-methyl]-6-methyl-isochroman-5-ol] | 425 nM | 241 nM
10 | CCCNC[C@@H]1O[C@H](C2CCN(Cc3ccccc3)CC2)Cc2c1ccc(C)c2O [Example 174, (1R,3S)-3-(1-Benzyl-piperidin-4-yl)-6-methyl-1-propylaminomethyl-isochroman-5-ol] | 510 nM | 248 nM
11 | CCCN(C)C[C@@H]1O[C@H](C2CCN(Cc3ccccc3)CC2)Cc2c1ccc(C)c2O [Example 175, (1R,3S)-3-(1-Benzyl-piperidin-4-yl)-6-methyl-1-[(methyl-propyl-amino)-methyl]-isochroman-5-ol] | 3070 nM | ≥ 10000 nM
12 | C=CCN(C)C[C@@H]1O[C@H](C2CCN(Cc3ccccc3)CC2)Cc2c1ccc(C)c2O [Example 176, (1R,3S)-1-[(Allyl-methyl-amino)-methyl]-3-(1-benzyl-piperidin-4-yl)-6-methyl-isochroman-5-ol] | 1700 nM | 124 nM
13 | Cc1ccc2c(c1O)C[C@@H](C1CCN(Cc3ccccc3)CC1)O[C@H]2CNC1CCC1 [Example 177, (1R,3S)-3-(1-Benzyl-piperidin-4-yl)-1-cyclobutylaminomethyl-6-methyl-isochroman-5-ol] | ≥ 10000 nM | 305 nM
14 | C=CCN(CC=C)C[C@@H]1O[C@H](C2CCN(CC(=O)c3ccccc3)CC2)Cc2c1ccc(C)c2O [Example 180, 2-[4-((1R,3S)-1-Diallylaminomethyl-5-hydroxy-6-methyl-isochroman-3-yl)-piperidin-1-yl]-1-phenyl-ethanone] | 642 nM | 86 nM
15 | CCCN(CCC)C[C@@H]1O[C@H](C2CCN(Cc3ccccc3)CC2)Cc2c1ccc(C)c2O [Example 188, (1R,3S)-3-(1-Benzyl-piperidin-4-yl)-1-dipropylaminomethyl-6-methyl-isochroman-5-ol dihydrochloride] | 586 nM | 140 nM
16 | Cc1ccc(C(=O)NCCN2CCC([C@@H]3Cc4c(ccc(C)c4O)[C@H](CN)O3)CC2)cc1 [Example 190, N-{2-[4-((1R,3S)-1-Aminomethyl-5-hydroxy-6-methylisochroman-3-yl)-piperidin-1-yl]-ethyl}-4-methylbenzamide dihydrobromide] | 46 nM | 361 nM
